Measured values reported in the NIST ThermoML archive (doi:10.1016/j.jct.2012.01.025).
Numbers after ± are expanded uncertainties.

Key:
[1] = Molar enthalpy of transition or fusion; settings: Crystal; DSC
[2] = for vapor or sublimation pressure: Closed cell (Static) method
[3] = molar enthalpy of vaporization or sublimation; settings: 298.15 K; Crystal; Drop calorimetry

c1ccc2c(c1)-c1cccc3cccc-2c13 [fluoranthene]
Molar enthalpy of transition or fusion [1]: 4.63 ± 0.127 kcal/mol
vapor or sublimation pressure ([2]; 348.83 K, Crystal): 0.00042 ± 0.00012 kPa
vapor or sublimation pressure ([2]; 351.82 K, Crystal): 0.00056 ± 0.00012 kPa
vapor or sublimation pressure ([2]; 354.78 K, Liquid): 0.00117 ± 0.00013 kPa
vapor or sublimation pressure ([2]; 354.79 K, Crystal): 0.00076 ± 0.00013 kPa
vapor or sublimation pressure ([2]; 356.76 K, Liquid): 0.00137 ± 0.00013 kPa
vapor or sublimation pressure ([2]; 357.77 K, Crystal): 0.00101 ± 0.00013 kPa
vapor or sublimation pressure ([2]; 360.71 K, Liquid): 0.00185 ± 0.00014 kPa
vapor or sublimation pressure ([2]; 360.73 K, Crystal): 0.0013 ± 0.00013 kPa
vapor or sublimation pressure ([2]; 363.72 K, Crystal): 0.00171 ± 0.00014 kPa
vapor or sublimation pressure ([2]; 366.68 K, Crystal): 0.00225 ± 0.00015 kPa
vapor or sublimation pressure ([2]; 366.68 K, Liquid): 0.0029 ± 0.00017 kPa
vapor or sublimation pressure ([2]; 368.53 K, Liquid): 0.0033 ± 0.00018 kPa
vapor or sublimation pressure ([2]; 369.65 K, Crystal): 0.00292 ± 0.00017 kPa
vapor or sublimation pressure ([2]; 370.63 K, Liquid): 0.00384 ± 0.0002 kPa
vapor or sublimation pressure ([2]; 372.57 K, Liquid): 0.00438 ± 0.00021 kPa
vapor or sublimation pressure ([2]; 372.62 K, Crystal): 0.00379 ± 0.0002 kPa
vapor or sublimation pressure ([2]; 374.61 K, Liquid): 0.00509 ± 0.00024 kPa
vapor or sublimation pressure ([2]; 375.59 K, Crystal): 0.00491 ± 0.00023 kPa
vapor or sublimation pressure ([2]; 378.57 K, Liquid): 0.0067 ± 0.00029 kPa
vapor or sublimation pressure ([2]; 382.51 K, Liquid): 0.00865 ± 0.00036 kPa
vapor or sublimation pressure ([2]; 384.49 K, Liquid): 0.00979 ± 0.0004 kPa
vapor or sublimation pressure ([2]; 386.46 K, Liquid): 0.01118 ± 0.00046 kPa
vapor or sublimation pressure ([2]; 388.46 K, Liquid): 0.01265 ± 0.00051 kPa
vapor or sublimation pressure ([2]; 390.43 K, Liquid): 0.01425 ± 0.00054 kPa
vapor or sublimation pressure ([2]; 392.43 K, Liquid): 0.0161 ± 0.00057 kPa
vapor or sublimation pressure ([2]; 394.39 K, Liquid): 0.0181 ± 0.0006 kPa
vapor or sublimation pressure ([2]; 396.38 K, Liquid): 0.02041 ± 0.00063 kPa
vapor or sublimation pressure ([2]; 398.36 K, Liquid): 0.02287 ± 0.00067 kPa
vapor or sublimation pressure ([2]; 400.35 K, Liquid): 0.02578 ± 0.00071 kPa
vapor or sublimation pressure ([2]; 402.34 K, Liquid): 0.02887 ± 0.00076 kPa
vapor or sublimation pressure ([2]; 404.3 K, Liquid): 0.03224 ± 0.00081 kPa
Normal melting temperature ([2]; Crystal, DTA): 109.69 ± 0.4 °C
molar enthalpy [3]: 23 ± 0.669 kcal/mol
